Laboratory results taken from patent US7582655B2, “Antineoplastic compounds” (University of Saskatchewan, priority 2005, dated 2009).
pIC50: −log10 of the molar value. Like-named read-outs stand apart in the source and are kept apart here.

Assays:
[1] = test system: human squamous cell carcinomas HSC-4; test: Cytotoxicity CC50, MTT assay, HSC-4
Procedure: (§1) In addition, the compounds were evaluated against human squamous cell carcinomas (HSC-2 and HSC-4) and human promyelocytic leukemia neoplasms (HL-60) and compared with normal cells, i.e. human gingival fibroblasts (HGF), human pulp cells (HPC) and human periodontal ligament fibroblasts (HPLF).
(§2) MTT stands for 3-(4,5-dimethylthiazol-2-yl)-2,5-diphenyltetrazolium bromide). The cells were incubated with varying concentrations of the compounds along with untreated cells for 24 h and the absorbance at 540 nm measured. In the case of the HL-60 assay, the trypan blue exclusion method was followed and cell viability was determined using a haemocytometer. The CC50 values were obtained from dose-response curves (Sakagami, H.; Satoh, K.; Ohata, H.; Takahashi, H.; Yoshida, H.; Iida, M.; Kuribayashi, N.; Sakagami, T.; Momose, K.; Takeda, M. Anticancer Res. 1996, 16, 2635-2644). The general methods used in culturing the cells employed in these cytotoxicity experiments have been described previously (Kawase, M.; Sakagami, H.; Motohashi, N.; Hauer, H.; Chatterjee, S. S.; Spengler, G.; Vigyikanne, A. V.; Molnár, A.; Molnár, J. In Vivo 2005, 19, 705-712; and Takeuchi, R.; Hoshijima, H.; Onuki, N.; Nagasaka, H.; Chowdhury, S. A.; Kawase, M.; Sakagami, H. Anticancer Res. 2005, 25, 4037-4042). In brief, the malignant cells were obtained from Professor Nagumo, Showa University, Japan. The HGF, HPC and HPLF cells were prepared from human periodontal tissue after obtaining informed consent according to the guidelines of Meikai University Ethics Committee, Japan (No. 0206). Since normal cells have a short lifespan, cells at the 3-7 population doubling time were used. With the exception of the HL-60 neoplasm, the cells were cultured in DMEM containing heat-inactivated FBS (10%) at 37° C. in a humidified carbon dioxide atmosphere and subcultured by trypsinization. The HL-60 cells were cultured in a similar fashion except that RPMI 1640 media was employed.

[2] = test system: HSC-2, HSC-4 and HL-60 malignant cells; test: Average CC50 for malignant cells
Procedure: as §1, §2

[3] = test system: human promyelocytic leukemia HL-60; test: Cytotoxicity CC50, trypan blue exclusion, HL-60
Procedure: as §1, §2

SR = test: Human tumour cell line panel, leukemic SR; assay type: cell-based; conditions: 48 h; read-out: Leukemic cells, IC50(μM) SR
Procedure: (§3) In addition, both 5-fluorouracil and melphalan were evaluated towards 57 cell lines. […] MG MID is the average of the potencies of the compound to approximately 50 neoplastic cell lines.

COLO 205 = test: Human tumour cell line panel, colon cancer COLO 205; assay type: cell-based; conditions: 48 h; read-out: Colon cancer cells, IC50(μM) COLO 205
Procedure: as §3

HCC 2998 = test: Human tumour cell line panel, colon cancer HCC 2998; assay type: cell-based; conditions: 48 h; read-out: Colon cancer cells, IC50(μM) HCC 2998
Procedure: as §3

HCT 15 = test: Human tumour cell line panel, colon cancer HCT 15; assay type: cell-based; conditions: 48 h; read-out: Colon cancer cells, IC50(μM) HCT 15
Procedure: as §3

HL 60 = test: Human tumour cell line panel, leukemic HL 60; assay type: cell-based; conditions: 48 h; read-out: Leukemic cells, IC50(μM) HL 60
Procedure: as §3

HCT 116 = test: Human tumour cell line panel, colon cancer HCT 116; assay type: cell-based; conditions: 48 h; read-out: Colon cancer cells, IC50(μM) HCT 116
Procedure: as §3

SW 620 = test: Human tumour cell line panel, colon cancer SW 620; assay type: cell-based; conditions: 48 h; read-out: Colon cancer cells, IC50(μM) SW 620
Procedure: as §3

RPMI 8226 = test: Human tumour cell line panel, leukemic RPMI 8226; assay type: cell-based; conditions: 48 h; read-out: Leukemic cells, IC50(μM) RPMI 8226
Procedure: as §3

[4] = test system: human gingival fibroblasts (HGF); test: Cytotoxicity CC50, MTT assay, normal HGF cells
Procedure: as §1, §2

human tumour cell lines = test: Panel of human tumour cell lines, all cell lines (mean graph midpoint); assay type: cell-based; conditions: mean graph midpoint, average of 49 (38-59) human tumour cell lines, 48 h incubation; read-out: All cell lines IC50
Procedure: A number of compounds of the invention were further assessed against numerous human malignant cell lines. An average of 49 cell lines from nine different neoplastic diseases, namely leukemia, melanoma, non-small cell lung, colon, central nervous system, ovarian, renal, prostate, and breast cancers were employed.
as §3

human pulp cells (HPC) = test: Cytotoxicity CC50, MTT assay, normal HPC cells
Procedure: as §1, §2

KM 12 = test: Human tumour cell line panel, colon cancer KM 12; assay type: cell-based; conditions: read-out: Colon cancer cells, IC50(μM) KM 12
Procedure: as §3

K 562 = test: Human tumour cell line panel, leukemic K 562; assay type: cell-based; conditions: 48 h; read-out: Leukemic cells, IC50(μM) K 562
Procedure: as §3

[5] = test system: human squamous cell carcinomas HSC-2; test: Cytotoxicity CC50, MTT assay, HSC-2
Procedure: as §1, §2

[6] = test system: human periodontal ligament fibroblasts (HPLF); test: Cytotoxicity CC50, MTT assay, normal HPLF cells
Procedure: as §1, §2

[7] = test system: murine L-5178 lymphoma cells transfected with the human MDR1 gene; test: MDR reversal, rhodamine 123 fluorescence activity ratio; conditions: FAR >1 indicates MDR reversal; for FAR value 4 μg/ml: compound 4 μg/ml; for FAR value 40 μg/ml: compound 40 μg/ml
Procedure: A solution of the test compound (2 mg/ml, 10 μl) in dimethylsulfoxide was added to aliquots of the cell suspension and incubated at room temperature for 10 minutes. […] The cells were washed twice and resuspended in PBS (pH 7.4) after which the fluorescence was measured using a Beckton Dickinson FACScan instrument. The fluorescence of the cells was measured in treated MDR cells (F1), untreated MDR cells (F2), treated parental cells (F3) […] were obtained from the following equation, viz (F1/F2)/(F3/F4).

[8] = test system: HGF, HPC and HPLF cells versus HSC-2, HSC-4 and HL-60 neoplasms; test: Selectivity index, normal versus malignant cells; assay type: cell-based, human; conditions: average CC50 of HGF, HPLF divided by average CC50 of HSC-2, HSC-4, HL-60
Procedure: as §1, §2

[9] = read-out: CC50(μM) HSC-4, 24 h, MTT, average of two determinations
[10] = average CC50 for HSC-2, HSC-4 and HL-60 malignant cells
[11] = read-out: CC50(μM) HL-60, 24 h, trypan blue exclusion, average of two determinations
[12] = read-out: CC50(μM) HGF, normal cells, 24 h, MTT
[13] = read-out: CC50(μM) HPC, normal cells, 24 h, MTT
[14] = read-out: CC50(μM) HSC-2, 24 h, MTT, average of two determinations
[15] = read-out: CC50(μM) HPLF, normal cells, 24 h, MTT
[16] = Homo sapiens, HSC-4, 24 h, read-out: CC50(μM) HSC-4
[17] = Homo sapiens, HL-60, 24 h, read-out: CC50(μM) HL-60
[18] = Homo sapiens, HSC-2, 24 h, read-out: CC50(μM) HSC-2

Compound: 1-[4-(2-Dimethylaminoethoxy)phenylcarbonyl]-3,5-bis(4-methylphenyl-methylene)-4-piperidone hydrochloride hemihydrate [Compound 3d]
- CC50 [1, 9]: 2.1 µM
- CC50(μM) ave [2, 10]: 1.5 µM
- CC50 [3, 11]: 0.85 µM
- IC50 (SR): 0.479 µM
- IC50 (COLO 205): 1.02 µM
- IC50 (HCC 2998): 0.229 µM
- IC50 (HCT 15): 0.912 µM
- IC50 (HL 60): 1.32 µM
- IC50 (HCT 116): 1.38 µM
- IC50 (SW 620): 0.562 µM
- IC50 (RPMI 8226): 0.224 µM
- CC50 [4, 12]: 7.9 µM
- pIC50 (human tumour cell lines): 5.94
- CC50 (human pulp cells (HPC); [13]): 7.2 µM
- IC50 (KM 12): 0.776 µM
- IC50 (K 562): 1.82 µM
- CC50 [5, 14]: 1.4 µM
- CC50 [6, 15]: 3.4 µM

Compound: 3,5-bis(4-Chlorophenylmethylene)-1-[4-(2-dimethylaminoethoxy)phenyl-carbonyl]-4-piperidone hydrochloride hemihydrate [Compound 3b]
- CC50 [1, 9]: 1.8 µM
- CC50(μM) ave [2, 10]: 1.9 µM
- CC50 [3, 11]: 1.7 µM
- IC50 (SR): 0.126 µM
- IC50 (COLO 205): 1.7 µM
- IC50 (HCC 2998): 0.263 µM
- IC50 (HCT 15): 0.295 µM
- IC50 (HL 60): 1.41 µM
- IC50 (HCT 116): 6.03 µM
- IC50 (SW 620): 0.209 µM
- IC50 (RPMI 8226): 0.098 µM
- CC50 [4, 12]: 23 µM
- pIC50 (human tumour cell lines): 5.72
- CC50 (human pulp cells (HPC); [13]): 11 µM
- IC50 (KM 12): 1.74 µM
- IC50 (K 562): 0.331 µM
- CC50 [5, 14]: 2.3 µM
- CC50 [6, 15]: 4.3 µM

Compound: O=C1C(=Cc2ccccc2)CNCC1=Cc1ccccc1 [Compound 1a]
- FAR value 4 μg/ml [7]: 1.58
- FAR value 40 μg/ml [7]: 2.00
- CC50 [1]: 4.4 µM
- CC50(μM) ave [2]: 2.7 µM
- CC50 [3]: 1.5 µM
- IC50 (SR): 0.209 µM
- IC50 (COLO 205): 1.55 µM
- IC50 (HCC 2998): 2 µM
- IC50 (HCT 15): 0.631 µM
- IC50 (HL 60): 0.363 µM
- IC50 (HCT 116): 0.182 µM
- IC50 (SW 620): 0.575 µM
- IC50 (RPMI 8226): 0.275 µM
- CC50 [4]: 20 µM
- pIC50 (human tumour cell lines): 5.79
- CC50 (human pulp cells (HPC)): 38 µM
- IC50 (KM 12; 48 h): 0.794 µM
- IC50 (K 562): 0.49 µM
- CC50 [5]: 2.2 µM
- CC50 [6]: 24 µM

Compound: Cc1ccc(C=C2CNCC(=Cc3ccc(C)cc3)C2=O)cc1 [Compound 1d, 3,5-bis(4-Methylphenylmethylene)-4-piperidone]
- FAR value 4 μg/ml [7]: 3.26
- FAR value 40 μg/ml [7]: 4.03
- CC50 [1, 16]: 9.3 µM
- CC50 [3, 17]: 4.5 µM
- SI (selectivity index) [8]: 29
- CC50 [5, 18]: 3.9 µM

Compound: CCN(CC)CCOc1ccc(C(=O)N2CC(=Cc3ccc([N+](=O)[O-])cc3)C(=O)C(=Cc3ccc([N+](=O)[O-])cc3)C2)cc1.Cl [Compound 4c, 1-[4-(2-Diethylaminoethoxy)phenylcarbonyl]-3,5-bis(4-nitrophenylmethylene)-4-piperidone hydrochloride]
- FAR value 4 μg/ml [7]: 77.5
- FAR value 40 μg/ml [7]: 14.1
- CC50 [1, 16]: 1.1 µM
- CC50 [3, 17]: 0.26 µM
- SI (selectivity index) [8]: 6.6
- CC50 [5, 18]: 0.98 µM

Compound: CC[N+](C)(CC)CCOc1ccc(C(=O)N2CC(=Cc3ccccc3)C(=O)C(=Cc3ccccc3)C2)cc1.[I-] [Compound 7a, 1-[4-(2-Diethylaminoethoxy)phenylcarbonyl]-3,5-bis(phenylmethylene)-4-piperidone methoiodide]
- FAR value 4 μg/ml [7]: 1.37
- FAR value 40 μg/ml [7]: 1.05
- CC50 [1]: 82 µM
- CC50(μM) ave [2]: 98 µM
- CC50 [3]: 82 µM
- IC50 (SR): 38 µM
- IC50 (COLO 205): 20.4 µM
- IC50 (HCC 2998): 28.2 µM
- IC50 (HCT 15): > 50.1 µM
- IC50 (HL 60): > 50.1 µM
- IC50 (HCT 116): > 50.1 µM
- IC50 (SW 620): 30.2 µM
- IC50 (RPMI 8226): 17.4 µM
- CC50 [4]: 160 µM
- pIC50 (human tumour cell lines): < 4.38
- CC50 (human pulp cells (HPC)): 170 µM
- IC50 (KM 12; 48 h): 43.7 µM
- IC50 (K 562): 43.7 µM
- CC50 [5]: 130 µM
- CC50 [6]: 79 µM

Compound: CC[N+](C)(CC)CCOc1ccc(C(=O)N2CC(=Cc3ccc(C)cc3)C(=O)C(=Cc3ccc(C)cc3)C2)cc1.[I-] [Compound 7d, 1-[4-(2-Diethylaminoethoxy)phenylcarbonyl]-3,5-bis(4-methylphenylmethylene)-4-piperidone methoiodide]
- FAR value 4 μg/ml [7]: 1.93
- FAR value 40 μg/ml [7]: 114
- CC50 [1]: 17 µM
- CC50(μM) ave [2]: 17 µM
- CC50 [3]: 16 µM
- IC50 (SR): 22.9 µM
- IC50 (COLO 205): 8.91 µM
- IC50 (HCC 2998): 6.17 µM
- IC50 (HCT 15): 9.33 µM
- IC50 (HL 60): 11.8 µM
- IC50 (HCT 116): 14.1 µM
- IC50 (SW 620): 10.5 µM
- IC50 (RPMI 8226): 1.26 µM
- CC50 [4]: 34 µM
- pIC50 (human tumour cell lines): 5.11
- CC50 (human pulp cells (HPC)): 29 µM
- IC50 (KM 12; 48 h): 9.33 µM
- IC50 (K 562): 1.35 µM
- CC50 [5]: 17 µM
- CC50 [6]: 8.3 µM
